Source: patent US11066630B2, “Device and method for analysis of tissue constructs” (The Johns Hopkins University, priority 2015, dated 2021)

Columns and labels:
[1] = tested on: ASM cells in lung-chip; experiment: Cell rheology measurements using the lung-chip platform (frequency-domain OMTC); assay type: cell-based, human; details: frequency-domain OMTC on lung-chip
Source text: (§1) Magnetic twisting cytometry with optical detection was used to quantitatively assess dynamic changes in cell stiffness as an indicator of single-cell contraction or relaxation of HASM cells, as previously described. In brief, ferrimagnetic microbeads (4.5 μm in diameter) coated with synthetic Arg-Gly-Asp (RGD) containing peptide (American Peptide Company) bound to the cytoskeleton through cell surface integrin receptors were magnetized horizontally. Subsequently, a vertically aligned homogeneous magnetic field varying sinusoidally in time applied an oscillatory torque, leading to both a rotation and a pivoting displacement of the bead (FIG. 18B). Measurements were performed at a single frequency of 0.75 Hz or oscillatory frequencies between 10^−1 and 10^3 Hz for cell rheology measurements (FIG. 21). Lateral bead displacements in response to the resulting oscillatory torque were detected optically (in spatial resolution of ˜5 nm), and the ratio of specific torque to bead displacement was computed as the cell stiffness in units of Pascals (Pa) per nanometer. For drug-induced single-cell contraction or relaxation, changes in HASM stiffness were measured in real-time for the duration of 300 seconds. For each individual cell, the baseline stiffness was measured for the first 60 seconds, and after drug addition, the stiffness was measured continuously for the next 240 seconds.

[2] = tested on: ASM cells in lung-chip co-culture with airway epithelial cells; experiment: Lung-chip: ASM contraction after compressive stress on the epithelial layer (OMTC); assay type: cell-based, human; details: after 30 cmH2O compressive stress; 10 μM methacholine, followed by 1 μM PGE2
Protocol: The upper and lower layer of the microfluidic device were fabricated using standard soft lithography techniques by casting a flexible and optically transparent polydimethylsiloxane (PDMS) polymer on a mold and cross-linking at 80° C. for 2 hours. The mold was fabricated using optical lithography with an epoxy-based negative photoresist (SU8) that yields thick and robust structures. The two PDMS layers each had compartments with 5 mm width, 20 mm length, and 300 μm height, and around 100 support pillars with 200 μm diameter distributed across the compartments. The two compartments were separated by an optically-clear polycarbonate membrane (Sterlitech) with 5 μm diameter holes, allowing cells on both sides of the membranes to chemically interact. To construct the complete chip, first a PDMS layer and the polycarbonate membrane were exposed to an oxygen plasma (30 W, 700 mTorr, 30 sec) to chemically activate their surfaces. Immediately after the plasma treatment, the PDMS surface was silanized using 5 μl of an APTES solution (1% 3-aminopropyltriethoxysilane in water) and the polycarbonate membrane was allowed to bond to it. After 2 hours of bonding at room temperature, the process was repeated to bond the second PDMS compartment to the other side of the polycarbonate membrane. […]

[3] = tested on: primary ASM cells from asthmatic and non-asthmatic donors; experiment: HASM stiffness measurements: drug-induced single-cell contraction or relaxation, asthmatic vs non-asthmatic ASM cells; assay type: cell-based, human
Protocol: (§2) Primary human epithelial and smooth muscle cells were harvested from the proximal airways (first through third order bronchi) of donor lungs unsuitable for transplantation (Table I) in accordance with the Institutional Review Boards at the University of Pennsylvania. Primary normal human bronchial epithelial (NHBE) cells were grown in collagen-coated flasks (GIBCO) using serum-free BEGM Bronchial Epithelial Cell Growth Medium™ with BulletKit™ Supplements (Lonza) and subsequently trypsinized and seeded onto porous polycarbonate membranes (either inside microfluidic devices or on transwell inserts) at 100,000 cells/cm^2. The polycarbonate membranes were coated with collagen type I (30 μg/ml; GIBCO) at 37° C. for 18 h before cell seeding. After NHBE cells reached confluence (within 3-5 days), the apical medium was removed and the basal medium was replaced with differentiation medium (PneumaCult-ALI™ Medium and Supplements, StemCell Technologies). The NHBE cells were maintained at the ALI for 2-3 weeks, until they differentiated into a pseudostratified layer. Excess mucus on the air side was washed away with warm PBS weekly. After NHBE differentiation in the microfluidic chips, primary HASM cells were seeded into the bottom compartment. Approximately 18 h before the live-cell micromechanical experiments using MTC, the culture medium of HASM cells was changed to serum-free minimal media (1:1 vol/vol mixture of DMEM Dulbecco's modified Eagle's medium and Ham's F-12 medium, supplemented with insulin […]), and cells were maintained at 37° C. in humidified air containing 5% CO2. The overnight media was then washed and replaced with fresh minimal media before the experiments. This minimal media procedure was applied to NHBE cells as well before compressive-stress application. For experiments involving Celecoxib or Verteporfin (Sigma Aldrich), NHBE cells were pre-treated with the drugs before the second washing step, as the presence of Celecoxib in the infranatant affected HASM mechanics (FIGS. 19A-B), and Verteporfin in the infranatant would have phototoxic effects on HASM cells during the live-cell micromechanical measurements. Since Verteporfin is a photosensitizer, treatment of NHBE cells was always performed in the dark.
as §1, with “Subsequently, a vertically aligned homogeneous magnetic field varying sinusoidally in time applied an oscillatory torque, leading to both a rotation and a pivoting displacement of the bead (FIG. 18B). Measurements were performed at a single frequency of 0.75 Hz or oscillatory frequencies between 10^−1 and 10^3 Hz for cell rheology measurements (FIG. 21).” left out

[4] = tested on: NHBE cells; experiment: PGE2 content of epithelial infranatant (EIA kit); assay type: cell-based, human; details: epithelial cells with or without compressive stress
Protocol: (§3) Primary human epithelial and smooth muscle cells were harvested from the proximal airways (first through third order bronchi) of donor lungs unsuitable for transplantation (Table I) in accordance with the Institutional Review Boards at the University of Pennsylvania. Primary normal human bronchial epithelial (NHBE) cells were grown in collagen-coated flasks (GIBCO) using serum-free BEGM Bronchial Epithelial Cell Growth Medium™ with BulletKit™ Supplements (Lonza) and subsequently trypsinized and seeded onto porous polycarbonate membranes (either inside microfluidic devices or on transwell inserts) at 100,000 cells/cm^2. The polycarbonate membranes were coated with collagen type I (30 μg/ml; GIBCO) at 37° C. for 18 h before cell seeding. […]
Media from the basal compartments (infranatant) were collected from control samples or after application of 30 cmH2O compressive stress on NHBE cells, and were assayed for the presence of PGE2 using a commercial EIA kit (DetectX™ Prostaglandin E2 High Sensitivity Immunoassay Kit, Arbor Assays, Ann Arbor, Mich.) following the manufacturer's instructions. The absorbance in the samples was measured at 450 nm with a microplate reader (Molecular Devices, Sunnyvale, Calif.). […]

[5] = tested on: airway epithelial cells; experiment: Gene expression analysis (TaqMan real-time PCR) in airway epithelial cells; assay type: cell-based, human
Protocol: as §2, with “For experiments involving Celecoxib or Verteporfin (Sigma Aldrich), NHBE cells were pre-treated with the drugs before the second washing step, as the presence of Celecoxib in the infranatant affected HASM mechanics (FIGS. 19A-B), and Verteporfin in the infranatant would have phototoxic effects on HASM cells during the live-cell micromechanical measurements. Since Verteporfin is a photosensitizer, treatment of NHBE cells was always performed in the dark.” left out

[6] = tested on: primary human airway epithelial cells (NHBE); readout on HASM cells; experiment: ASM cell contraction (OMTC stiffness) in response to infranatant from drug-treated epithelial cells exposed to compressive stress; assay type: cell-based; details: epithelial cells treated with drug; 30 cmH2O, 0h vs 3h pressure
Protocol: as §3, with “seeding. After NHBE cells reached confluence (within 3-5 days), the apical medium was removed and the basal medium was replaced with differentiation medium (PneumaCult-ALI™ Medium and Supplements, StemCell Technologies). The NHBE cells were maintained at the ALI for 2-3 weeks, until they differentiated into a pseudostratified layer. Excess mucus on the air side was washed away with warm PBS weekly.” for “seeding.”
Magnetic twisting cytometry with optical detection was used to quantitatively assess dynamic changes in cell stiffness as an indicator of single-cell contraction or relaxation of HASM cells, as previously described. […]

Compound: NCCc1c[nH]cn1 [Histamine, histamine]
- ASM cell stiffness [1]: increases ASM cell stiffness
- Stress relaxation of ASM cells [1]: more difficult (slower) for the cells to relax stress

Compound: CCCCC[C@H](O)/C=C/[C@H]1[C@H](O)CC(=O)[C@@H]1C/C=C\CCCC(=O)O [PGE2]
- ASM contraction in lung-chip after pressure turned off [2]: did not lead to relaxation
- Stiffness change (contraction or relaxation), asthmatic compared with non-asthmatic ASM cells [3]: asthmatic ASM cells relaxed more
- ASM response to agonist ([3]; different doses and different patient samples): consistently caused ASM relaxation

Compound: CCCCC[C@H](O)/C=C/[C@@H]1[C@@H](C/C=C\CCCC(=O)O)[C@@H](O)C[C@H]1O [PGF2α]
- Stiffness change (contraction or relaxation), asthmatic compared with non-asthmatic ASM cells [3]: did not yield a difference in response between asthmatic and non-asthmatic ASM cells

Compound: C=C1[C@@H](C)[C@H]2[C@H](Cc3ccccc3)NC(=O)[C@]23[C@H](OC(C)=O)/C=C/[C@@](C)(O)C(=O)[C@@H](C)C/C=C/[C@H]3[C@@H]1O [cytochalasin D]
- ASM cell stiffness [1]: reduces ASM cell stiffness
- Stress relaxation of ASM cells [1]: easier (faster) for the cells to relax stress

Compound: CC(C)NCC(O)c1ccc(O)c(O)c1 (stereo not shown) [isoproterenol]
- Stiffness change (contraction or relaxation), asthmatic compared with non-asthmatic ASM cells [3]: less relaxation in asthmatic ASM cells

Compound: CC(=O)OC(C)C[N+](C)(C)C (stereo not shown) [methacholine]
- ASM contraction in lung-chip after pressure turned off [2]: only slightly increased ASM contraction
- Stiffness change (contraction or relaxation), asthmatic compared with non-asthmatic ASM cells [3]: stronger contraction in asthmatic ASM cells

Compound: Verteporfin
- PGE2 content of the infranatants [4]: less PGE2 production and suppression of the effects of compressive stress
- COX2 (PTGS2) mRNA expression ([5]; airway epithelial cells): downregulated COX2
- Regulation of COX1 and COX2 mRNA by compressive stress ([5]; airway epithelial cells, compressive stress): prohibited the downregulation of COX1 and upregulation of COX2 by compressive stress
- Upregulation of CTGF mRNA by compressive stress ([5]; epithelial cells): this upregulation was abrogated
- Effect of compressive stress on epithelial cells, read as ASM cell contraction in response to 0h and 3h-pressure epithelial samples [6]: abrogated the effects of compressive stress
